Data as given in patent publication US20080286201A1, “Caspase-3 Substrate Comprising Imaging Agents” (priority 2005, published 2008).
Square brackets hold non-standard residues; d marks the D form. Peptide text beside a SMILES is read from it. Tyr(3-I) = N[C@@H](Cc1ccc(O)c(I)c1)C(=O)O; Orn = NCCC[C@H](N)C(=O)O

Columns and labels:
caspase-3 = target: T1, caspase-3 (Homo sapiens, UniProt P42574); assay: Caspase-3 assay kit (BIOMOL QuantiZyme Assay System), potency (Ki) of caspase-3 test substrates; assay type: biochemical
T1 construct: purchased BIOMOL
T1 sequence (P42574 29-175 limits assumed): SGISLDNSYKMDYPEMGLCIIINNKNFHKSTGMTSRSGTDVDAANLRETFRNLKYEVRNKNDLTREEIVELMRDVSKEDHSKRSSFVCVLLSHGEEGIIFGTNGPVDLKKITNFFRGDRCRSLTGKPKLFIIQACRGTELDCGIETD
T1 sequence (P42574 176-277 limits assumed): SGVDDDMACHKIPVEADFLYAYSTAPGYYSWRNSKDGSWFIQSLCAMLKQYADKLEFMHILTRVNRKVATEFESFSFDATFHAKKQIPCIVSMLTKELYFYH
Description: Potency (Ki) of the caspase-3 test substrates was evaluated using a commercially available caspase-3 assay kit (BIOMOL QuantiZyme™ Assay System, CASPASE-3 Assay Kit for Drug Discovery). The DEVD substrate sequence was bio-modified with the additional of both tyrosine residues for radiolabelling and leader sequence to aid cell penetration. In vitro potency was maintained following both of these bio-modifications.

[1] = test system: phosphatidylserine (PS) on the outer membrane of apoptotic cells; conditions: read-out: affinity of binding to phosphatidylserine; cited from earlier work

| Ki (caspase-3) [µM] | Compound | Kd [1] [µM] |
| --- | --- | --- |
| 7.74 | CC(=O)N[C@@H](CC(=O)O)C(=O)N[C@@H](CCC(=O)O)C(=O)N[C@H](C(=O)N[C@@H](CC(=O)O)C(=O)Nc1ccc2c(C)cc(=O)oc2c1)C(C)C [Ac-Asp-Glu-Val-Asp-AMC, reference compound] |  |
| 7.83 | CC(=O)N[C@@H](CC(=O)O)C(=O)N[C@@H](CCC(=O)O)C(=O)N[C@H](C(=O)N[C@@H](CC(=O)O)C(=O)NCC(=O)N[C@@H](Cc1ccc(O)c(I)c1)C(N)=O)C(C)C [Compound 2] (Ac-DEVDG[Tyr(3-I)]-NH2) |  |
|  | Annexin-5: endogenous human protein (RMM 36 kDa) which binds to phosphatidylserine on apoptotic cells | ~0.001 |

| Compound | Ki (caspase-3) [µM] | Kd [1] [µM] |
| --- | --- | --- |
| CC(=O)N[C@@H](CCCNC(=N)N)C(=O)N[C@@H](CCCCN)C(=O)N[C@@H](CCCCN)C(=O)N[C@@H](CCCNC(=N)N)C(=O)N[C@@H](CCCNC(=N)N)C(=O)N[C@@H](CCCN)C(=O)N[C@@H](CCCNC(=N)N)C(=O)N[C@@H](CCCNC(=N)N)C(=O)N[C@@H](CCCNC(=N)N)C(=O)NCC(=O)N[C@@H](CC(=O)O)C(=O)N[C@@H](CCC(=O)O)C(=O)N[C@H](C(=O)N[C@@H](CC(=O)O)C(=O)NCC(=O)N[C@@H](CCCCN)C(=O)N[C@@H](CCCCN)C(=O)N[C@@H](Cc1ccc(O)c(I)c1)C(N)=O)C(C)C [Compound 22] (Ac-RKKRR[Orn]RRRGDEVDGKK[Tyr(3-I)]-NH2) | 9.24 |  |
